Results as given in patent US20250250232A1, “AZETIDINE DERIVATIVES AND USE THEREOF AS DIPEPTIDYL PEPTIDASE 1 INHIBITORS” (CHIESI FARMACEUTICI S.P.A., priority 2022, published 2025).
Where “and” joins values, the source holds several entries; their conditions need not be identical. Identical values can stand only once.

Each compound was assayed against human DPP1 enzyme (Homo sapiens (Human), UniProt P53634) (assay: Activity on human recombinant DPP1 isolated enzyme assay (H-Gly-Arg-AMC cleavage, fluorescence)). Conditions: 0.35 nM human DPP1, 300 μM H-Gly-Arg-AMC, 30 min pre-incubation at 25° C., pH 5.0.
Format: biochemical
Method: Human DPP1 enzyme activity was determined by measuring release of the fluorophore aminomethyl coumarin (AMC) following enzymatic cleavage of the dipeptide substrate H-Gly-Arg-AMC. Assays were performed in black 384 well plates in 25 mM piperazine buffer, pH 5.0, containing 50 mM NaCl, 0.01% (v/v) Triton X100, 5 mM DTT with 0.35 nM human DPP1 enzyme, 300 μM H-Gly-Arg-AMC substrate (˜Km concentration) and test compounds at 0.51-10000 nM concentration range. Human DPP1 was pre-incubated with test compounds for 30 minutes at 25° C. prior to substrate incubation for a further 40 minutes at 25° C. Enzyme activity was determined by measuring fluorescence of the AMC product at excitation and emission wavelengths of 380 nm and 460 nm using a BMG LABTECH PHERA star plate reader. Test compound potencies are reported in Table 15 as pIC50 values generated from 4-parameter sigmoidal curve fitting of the measured concentration-inhibition responses.

Chain of human DPP1 enzyme (P53634 231-394): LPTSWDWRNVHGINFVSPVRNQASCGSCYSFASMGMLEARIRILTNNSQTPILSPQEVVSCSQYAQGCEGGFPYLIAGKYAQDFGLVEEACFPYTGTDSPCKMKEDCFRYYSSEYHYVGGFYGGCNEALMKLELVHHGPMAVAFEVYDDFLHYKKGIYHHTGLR
Chain of human DPP1 enzyme (P53634 25-134): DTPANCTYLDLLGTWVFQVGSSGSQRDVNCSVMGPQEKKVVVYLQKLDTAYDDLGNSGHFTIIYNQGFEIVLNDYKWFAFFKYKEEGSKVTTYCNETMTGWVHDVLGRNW
Chain of human DPP1 enzyme (P53634 395-463): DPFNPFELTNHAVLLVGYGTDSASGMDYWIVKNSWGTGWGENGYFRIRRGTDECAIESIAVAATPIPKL

| h DPP1 pIC50 | SMILES |
| --- | --- |
| ++++ (h DPP1 pIC50 higher than 8) | CN1C(=O)Cc2ccc(-c3ccc(C[C@@H](C#N)NC(=O)C4(C(F)F)CNC4)c(F)c3)cc21 [Example 16, (S)-N-(1-cyano-2-(2-fluoro-4-(1-methyl-2-oxoindolin-6-yl)phenyl)ethyl)-3-(difluoromethyl)azetidine-3-carboxamide] |
| ++++ (h DPP1 pIC50 higher than 8) | COC1(C(=O)N[C@H](C#N)Cc2ccc(-c3ccc(C#N)cc3)cc2)CN(C)C1 [Example 24, (S)-N-(1-cyano-2-(4′-cyano-[1,1′-biphenyl]-4-yl)ethyl)-3-methoxy-1-methylazetidine-3-carboxamide] |

| SMILES | h DPP1 pIC50 |
| --- | --- |
| N#C[C@H](Cc1ccc(-c2ccc3c(c2)C2(CCN(C4COC4)CC2)OC3)cc1F)NC(=O)C1(C(F)F)CNC1 [Example 15, (S)-N-(1-cyano-2-(2-fluoro-4-(1′-(oxetan-3-yl)-3H-spiro[isobenzofuran-1,4′-piperidin]-6-yl)phenyl)ethyl)-3-(difluoromethyl)azetidine-3-carboxamide] | ++++ (h DPP1 pIC50 higher than 8) |

Same assay, conditions: 0.35 nM human DPP1, 300 μM H-Gly-Arg-AMC, 30 min pre-incubation at 25° C., pH 5.0; read-out: h DPP1 pIC50 (converted)

| IC50 | SMILES |
| --- | --- |
| 10 to 100 nM | COC1(C(=O)NC(C#N)Cc2ncc(-c3ccc(C#N)cc3)cc2F)CN(C)C1 (racemic) [Example 43, N-(1-cyano-2-(5-(4-cyanophenyl)-3-fluoropyridin-2-yl)ethyl)-3-methoxy-1-methylazetidine-3-carboxamide] |
| 10 to 100 nM | COC1(C(=O)NC(C#N)Cc2ncc(-c3ccc(C#N)cc3)cc2F)CN(C)C1 (single isomer, unassigned; enantiomer 1) [Example 44, enantiomer 1 of N-(1-cyano-2-(5-(4-cyanophenyl)-3-fluoropyridin-2-yl)ethyl)-3-methoxy-1-methylazetidine-3-carboxamide] |
| 1000 to 10000 nM | COC1(C(=O)NC(C#N)Cc2ncc(-c3ccc(C#N)cc3)cc2F)CN(C)C1 (single isomer, unassigned; enantiomer 2) [Example 45, Enantiomer 2 of N-(1-cyano-2-(5-(4-cyanophenyl)-3-fluoropyridin-2-yl)ethyl)-3-methoxy-1-methylazetidine-3-carboxamide] |
| 100 to 1000 nM | N#Cc1ccc(-c2ccc(C[C@@H](C#N)NC(=O)C3(O)CNC3)cc2)cc1 [Example 1, (S)-N-(1-cyano-2-(4′-cyano-[1,1′-biphenyl]-4-yl)ethyl)-3-hydroxyazetidine-3-carboxamide] |
| 100 to 1000 nM | N#Cc1ccc(-c2ccc(C[C@@H](C#N)NC(=O)C3(F)CNC3)cc2)cc1 [Example 2, (S)-N-(1-cyano-2-(4′-cyano-[1,1′-biphenyl]-4-yl)ethyl)-3-fluoroazetidine-3-carboxamide] |
| 1000 to 10000 nM | CC1NCC1C(=O)N[C@H](C#N)Cc1ccc(-c2ccc(C#N)cc2)cc1 (stereo partly drawn) [Example 3, N-((S)-1-cyano-2-(4′-cyano-[1,1′-biphenyl]-4-yl)ethyl)-2-methylazetidine-3-carboxamide] |
| 1000 to 10000 nM | CC1(C)NCC1C(=O)N[C@H](C#N)Cc1ccc(-c2ccc(C#N)cc2)cc1 (stereo partly drawn) [Example 4, N-((S)-1-cyano-2-(4′-cyano-[1,1′-biphenyl]-4-yl)ethyl)-2,2-dimethylazetidine-3-carboxamide] |
| 100 to 1000 nM | CCC1(C(=O)N[C@H](C#N)Cc2ccc(-c3ccc(C#N)cc3)cc2)CNC1 [Example 5, (S)-N-(1-cyano-2-(4′-cyano-[1,1′-biphenyl]-4-yl)ethyl)-3-ethylazetidine-3-carboxamide] |
| 10 to 100 nM | COC1(C(=O)N[C@H](C#N)Cc2ccc(-c3ccc(C#N)cc3)cc2)CNC1 [Example 6, (S)-N-(1-cyano-2-(4′-cyano-[1,1′-biphenyl]-4-yl)ethyl)-3-methoxyazetidine-3-carboxamide] |
| 10 to 100 nM | N#Cc1ccc(-c2ccc(C[C@@H](C#N)NC(=O)C3(C(F)F)CNC3)cc2)cc1 [Example 7, (S)-N-(1-cyano-2-(4′-cyano-[1,1′-biphenyl]-4-yl)ethyl)-3-(difluoromethyl)azetidine-3-carboxamide] |
| 10 to 100 nM | N#Cc1ccc(-c2ccc(C[C@@H](C#N)NC(=O)C3(CF)CNC3)cc2)cc1 [Example 8, (S)-N-(1-cyano-2-(4′-cyano-[1,1′-biphenyl]-4-yl)ethyl)-3-(fluoromethyl)azetidine-3-carboxamide] |
| 1000 to 10000 nM and 100 to 1000 nM | N#Cc1ccc(-c2ccc(C[C@@H](C#N)NC(=O)C3CNC3)cc2)cc1 [Example 9, (S)-N-(1-cyano-2-(4′-cyano-[1,1′-biphenyl]-4-yl)ethyl)azetidine-3-carboxamide] |
| 1000 to 10000 nM | COCC1(C(=O)N[C@H](C#N)Cc2ccc(-c3ccc(C#N)cc3)cc2)CNC1 [Example 10, (S)-N-(1-cyano-2-(4′-cyano-[1,1′-biphenyl]-4-yl)ethyl)-3-(methoxymethyl)azetidine-3-carboxamide] |
| 10 to 100 nM | CCOC1(C(=O)N[C@H](C#N)Cc2ccc(-c3ccc(C#N)cc3)cc2)CNC1 [Example 11, (S)-N-(1-cyano-2-(4′-cyano-[1,1′-biphenyl]-4-yl)ethyl)-3-ethoxyazetidine-3-carboxamide] |
| 10 to 100 nM | COC1(C(=O)N[C@H](C#N)Cc2ccc(-c3ccc(C#N)cc3)cc2F)CNC1 [Example 12, (S)-N-(1-cyano-2-(4′-cyano-3-fluoro-[1,1′-biphenyl]-4-yl)ethyl)-3-methoxyazetidine-3-carboxamide] |
| 10 to 100 nM | N#Cc1ccc(-c2ccc(C[C@@H](C#N)NC(=O)C3(C(F)F)CNC3)c(F)c2)cc1 [Example 13, (S)-N-(1-cyano-2-(4′-cyano-3-fluoro-[1,1′-biphenyl]-4-yl)ethyl)-3-(difluoromethyl)azetidine-3-carboxamide] |
| 10 to 100 nM | Cn1c(=O)oc2ccc(-c3ccc(C[C@@H](C#N)NC(=O)C4(C(F)F)CNC4)cc3)cc21 [Example 14, (S)-N-(1-cyano-2-(4-(3-methyl-2-oxo-2,3-dihydrobenzo[d]oxazol-5-yl)phenyl)ethyl)-3-(difluoromethyl)azetidine-3-carboxamide] |
| 10 to 100 nM | N#Cc1ccc(-c2ccc(C[C@@H](C#N)NC(=O)C3(C(F)(F)F)CNC3)cc2)cc1 [Example 17, (S)-N-(1-cyano-2-(4′-cyano-[1,1′-biphenyl]-4-yl)ethyl)-3-(trifluoromethyl)azetidine-3-carboxamide] |
| 10 to 100 nM | CSC1(C(=O)N[C@H](C#N)Cc2ccc(-c3ccc(C#N)cc3)cc2)CNC1 [Example 18, (S)-N-(1-cyano-2-(4′-cyano-[1,1′-biphenyl]-4-yl)ethyl)-3-(methylthio)azetidine-3-carboxamide] |
| 1000 to 10000 nM | N#Cc1ccc(-c2ccc(C[C@@H](C#N)NC(=O)C3(Cc4ccccc4)CNC3)cc2)cc1 [Example 20, (S)-3-benzyl-N-(1-cyano-2-(4′-cyano-[1,1′-biphenyl]-4-yl)ethyl)azetidine-3-carboxamide] |
| 1000 to 10000 nM | N#Cc1ccc(-c2ccc(C[C@@H](C#N)NC(=O)C3(Oc4ccccc4)CNC3)cc2)cc1 [Example 21, (S)-N-(1-cyano-2-(4′-cyano-[1,1′-biphenyl]-4-yl)ethyl)-3-phenoxyazetidine-3-carboxamide] |
| 10 to 100 nM | COC1(C(=O)N[C@H](C#N)Cc2ccc(-c3ccc4c(c3)N(C)C(=O)C4)cc2)CNC1 [Example 22, (S)-N-(1-cyano-2-(4-(1-methyl-2-oxoindolin-6-yl)phenyl)ethyl)-3-methoxyazetidine-3-carboxamide] |
| 1000 to 10000 nM | N#Cc1ccc(-c2ccc(C[C@@H](C#N)NC(=O)C3CN(C4COC4)C3)cc2)cc1 [Example 23, (S)-N-(1-cyano-2-(4′-cyano-[1,1′-biphenyl]-4-yl)ethyl)-1-(oxetan-3-yl)azetidine-3-carboxamide] |

Same assay, conditions: human recombinant DPP1 isolated enzyme assay; read-out: pIC50 on DPP1 (converted)

| IC50 | SMILES |
| --- | --- |
| 1000 to 10000 nM | N#Cc1ccc(-c2ccc(C[C@@H](C#N)NC(=O)C3CNC3)cc2)cc1 [Example 9, (S)-N-(1-cyano-2-(4′-cyano-[1,1′-biphenyl]-4-yl)ethyl)azetidine-3-carboxamide] |
